Earlier results as cited in patent US20250090695A1, “IMMUNOSTIMULANT-CYTOTOXIC CONJUGATE COMPOSITION AND METHODS FOR CANCER TREATMENT” (The Research Foundation for the State University of New York, priority 2022, published 2025).

Conditions: metastatic setting; cited from earlier work

CNC(=O)c1ccc(N2C(=S)N(c3ccc(C#N)c(C(F)(F)F)c3)C(=O)C2(C)C)cc1F [enzalutamide]
Overall survival extension: 4-5 months
